Experimental findings from ChEMBL document CHEMBL1144115, “Antibacterial diterpenoid acids from Azorella compacta” (1999) are described below.

Active and inactive are the calls of the source. No cut-off for these calls is given here. Where a SMILES comes first, the peptide text is derived from it. Bridges are numbered along the chain shown (N, C = ends). [ ]: non-standard residue; d: D form. The star is where a group is joined. Ileψ(thiazoline)Cys = CC[C@H](C)[C@H](N)C1=N[C@H](C(=O)*)CS1; dOrn = NCCC[C@@H](N)C(=O)O

Assay [1] deals with Staphylococcus aureus. Briefly: Antibacterial activity against methicillin-susceptible Staphylococcus aureus at 200 ug after 18 hrs by agar diffusion test. The class given is functional. To be noted: for zone of inhibition at 200 µg/disc: read-out: IZ.
Assay [2] concerns Staphylococcus aureus. Briefly: Antibacterial activity against methicillin-resistant Staphylococcus aureus at 200 ug after 18 hrs by agar diffusion test. To be noted: for zone of inhibition at 200 µg/disc: read-out: IZ. The class given is functional. (In agar diffusion tests the substance spreads into inoculated agar from a disc or well.)
For a further assay, the system named is Candida albicans. Kind of assay: Antimicrobial activity against Candida albicans at 200 ug after 18 hrs by agar diffusion test. The class given is functional, organism-based.
Assay [3] concerns Enterococcus faecium. Briefly: Antibacterial activity against vancomycin-resistant Enterococcus faecium at 200 ug after 18 hrs by agar diffusion test. The class given is functional. To be noted: for zone of inhibition at 200 µg/disc: read-out: IZ.
Assay [4] deals with Escherichia coli. Briefly: Antibacterial activity against Escherichia coli BAS849 mutant at 200 ug after 18 hrs by agar diffusion test. The class given is functional. The settings on record: for zone of inhibition at 200 µg/disc: read-out: IZ.
Assay [5] relates to Staphylococcus aureus. Briefly: Antibacterial activity against methicillin-susceptible Staphylococcus aureus at 30 ug after 18 hrs by agar diffusion test. The class given is functional. To be noted: read-out: IZ.
Assay [6] has as its system Staphylococcus aureus. Kind of assay: Antibacterial activity against methicillin-resistant Staphylococcus aureus at 30 ug after 18 hrs by agar diffusion test. The class given is functional. The settings on record: read-out: IZ.
In assay [7] the test system is Enterococcus faecium. Kind of assay: Antibacterial activity against vancomycin-resistant Enterococcus faecium at 10 ug after 18 hrs by agar diffusion test. The class given is functional. The settings on record: read-out: IZ.
For assay [8], the system named is Escherichia coli. Kind of assay: Antibacterial activity against Escherichia coli BAS849 mutant at 30 ug after 18 hrs by agar diffusion test. The class given is functional. The settings on record: read-out: IZ.

Take `CC1=CC[C@]2(C)CC[C@]3(C(=O)O)[C@@H](C(C)C)CC[C@H]3[C@@H]2C=C1`: the result with Staphylococcus aureus [1], in the assay with Staphylococcus aureus [2], in the assay on Candida albicans, in the assay with Enterococcus faecium [3] and in the assay on Escherichia coli [4] was inactive.

As to `CC1=CC(=O)[C@H]2[C@@H]3CC[C@H](C(C)C)[C@@]3(C(=O)O)CC[C@@]2(C)C=C1`, the zone of inhibition at 200 µg/disc in the assay with Staphylococcus aureus [1], in the assay with Staphylococcus aureus [2], in the assay with Enterococcus faecium [3] and in the assay on Escherichia coli [4] was 8 mm throughout. Moreover, the outcome in the assay with Candida albicans was inactive.

Take `CN[C@H](CC(C)C)C(=O)N[C@H]1C(=O)N[C@@H](CC(N)=O)C(=O)N[C@H]2C(=O)N[C@H]3C(=O)N[C@H](C(=O)N[C@H](C(=O)O)c4cc(O)cc(O)c4-c4cc3ccc4O)[C@H](O)c3ccc(c(Cl)c3)Oc3cc2cc(c3O[C@@H]2O[C@H](CO)[C@@H](O)[C@H](O)[C@H]2O[C@H]2C[C@](C)(N)[C@H](O)[C@H](C)O2)Oc2ccc(cc2Cl)[C@H]1O` [VANCOMYCIN]: the zone of inhibition at 30 µg/disc with Staphylococcus aureus [5] and with Staphylococcus aureus [6] was 16 mm each time.

For `CC[C@H](C)[C@H](N)C1=N[C@H](C(=O)N[C@@H](CC(C)C)C(=O)N[C@H](CCC(=O)O)C(=O)N[C@H](C(=O)N[C@H]2CCCCNC(=O)[C@H](CC(N)=O)NC(=O)[C@@H](CC(=O)O)NC(=O)[C@H](Cc3cnc[nH]3)NC(=O)[C@@H](Cc3ccccc3)NC(=O)[C@H]([C@@H](C)CC)NC(=O)[C@@H](CCCN)NC2=O)[C@@H](C)CC)CS1` [BACITRACIN] ({Ileψ(thiazoline)Cys}-L[dE]IK[dOrn]I[dF]H[dD]N; lactam 4-C), the zone of inhibition at 10 µg/disc with Enterococcus faecium [7] stood at 16 mm.

With `CC(C)[C@H]1CC[C@H]2[C@@H]3C=C[C@](C)(O)CC[C@]3(C)CC[C@]12C(=O)O`, the result with Staphylococcus aureus [1], with Staphylococcus aureus [2], with Candida albicans, in the assay with Enterococcus faecium [3] and with Escherichia coli [4] was inactive.

For the molecule `CO[C@@]1(NC(=O)Cc2cccs2)C(=O)N2C(C(=O)O)=C(COC(N)=O)CS[C@@H]21` [CEFOXITIN], in the assay with Escherichia coli [8], the zone of inhibition at 30 µg/disc amounted to 16 mm.

`CC1=CC(=O)[C@H]2[C@@H]3CC[C@H](C(C)C)[C@@]3(C(=O)O)CC[C@@]2(C)CC1=O`: the zone of inhibition at 200 µg/disc in the assay on Staphylococcus aureus [1], with Staphylococcus aureus [2], in the assay with Enterococcus faecium [3] and in the assay on Escherichia coli [4] was 8 mm each time. For the same molecule, in the assay with Candida albicans, the outcome was inactive.
